Values quoted from earlier work as cited in US10799517B2, “Oral composition of celecoxib for treatment of pain” (Dr. Reddy's Laboratories Ltd., priority 2015, dated 2020).

Assays:
[1] = between 5° C. and 40° C.; pH independent at pH<9
[2] = upon oral administration

aqueous solubility [1]: about 5 μg/ml
time for peak plasma concentrations to be achieved [2]: approximately 3.0 hours
SMILES: Cc1ccc(-c2cc(C(F)(F)F)nn2-c2ccc(S(N)(=O)=O)cc2)cc1 [Celecoxib, 4-[5-(4-methylphenyl)-3-(trifluoromethyl)-1H-pyrazol-1-yl] benzenesulfonamide]
